According to article PMC11357054, “Azobenzenesulfonamide Carbonic Anhydrase Inhibitors as New Weapons to Fight Helicobacter pylori: Synthesis, Bioactivity Evaluation, In Vivo Toxicity, and Computational Studies” (Pharmaceuticals, 2024):
≈ marks a conversion by molar mass, not a printed value. Like-named read-outs stand apart in the source and are kept apart here.

Tests used:
HpαCA = biological target: T1, HpαCA (Helicobacter pylori, UniProt B5Z8I0); assay: stopped-flow CO2 hydration; assay type: biochemical
T1 construct: gene HPG27_1129; recombinant, obtained in-house; PDB 4XFW is given for docking only
T1 sequence (B5Z8I0 22-247): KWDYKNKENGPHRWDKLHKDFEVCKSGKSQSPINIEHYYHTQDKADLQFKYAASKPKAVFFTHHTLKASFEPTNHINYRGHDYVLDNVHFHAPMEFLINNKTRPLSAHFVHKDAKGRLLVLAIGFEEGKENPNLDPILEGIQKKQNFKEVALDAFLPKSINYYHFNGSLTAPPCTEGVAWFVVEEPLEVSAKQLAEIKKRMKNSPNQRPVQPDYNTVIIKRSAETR

EcoβCA [1] = biological target: T2, EcoβCA (Escherichia coli, UniProt P61517); assay: biochemical; conditions: read-out: Bacterial Isoforms / Eco βCA
T2 construct: gene can; recombinant, obtained in-house
T2 sequence (P61517 whole entry, canonical isoform): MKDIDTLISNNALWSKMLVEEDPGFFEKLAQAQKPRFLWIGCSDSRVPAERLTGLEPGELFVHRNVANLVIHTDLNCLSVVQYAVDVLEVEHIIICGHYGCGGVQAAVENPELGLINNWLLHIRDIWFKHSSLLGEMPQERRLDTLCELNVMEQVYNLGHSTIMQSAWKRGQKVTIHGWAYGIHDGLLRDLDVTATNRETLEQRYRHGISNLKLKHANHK
Procedure: (§1) An Applied Photophysics stopped-flow instrument was used to evaluate the ability of the test compounds to inhibit CA-catalyzed CO2 hydration. […] The CO2 concentrations ranged from 1.7 to 17 mM for the determination of the kinetic parameters and inhibition constants. Enzyme concentrations spanned from 5 to 12 nM. Stock solutions of the inhibitor (0.1 mM) were prepared in distilled–deionized water, and dilutions up to 0.01 nM were prepared with the assay buffer. Inhibitor and enzyme solutions were preincubated for 15 min at r.t. for the formation of the E–I complex. The inhibition constants were obtained by non-linear least-squares methods using PRISM 3 and the Cheng–Prusoff equation and represent the mean from at least three different determinations. Apart from human CAs I and II purchased from Merck, all the bacterial CAs were recombinant and obtained in-house. Compounds 4a–j and 5a–j were tested on a large panel of human and bacterial isoenzymes belonging to different CA families, evaluating their inhibitory activity through the CO2 hydration activity assay by means of the stopped-flow technique, and the inhibitory constants (KIs) are reported in Table 1 and Table 2, respectively. In particular, we tested the hypoxic tumor-associated hCAs IX and XII, and bacterial isoforms involved in several infectious diseases, such as those caused by H. pylori (HpαCA and HpβCA), Porphyromonas gingivalis (PgiβCA and PgiγCA), Escherichia coli (EcoβCA), Pseudomonas aeruginosa (PsCA3, belonging to the β-class), Mammaliicoccus (Staphylococcus) sciuri (MscCA, belonging to the β-class), and Streptococcus mutans (SmuCA, belonging to the β-class). The inhibition of human physiologically relevant isoforms I and II was also investigated in order to assess the compounds’ selectivity. Our main aim was to rationalize the structural requirements of sulfonamide-containing compounds useful for targeting HpCAs, in order to gain a larger knowledge for further optimization studies focusing on isoform selectivity. In fact, although the tested human and bacterial isoforms present a low degree of sequence similarity, they catalyze the same reaction and contain the catalytically active zinc ion in the active site. Thus, a comparison of the data obtained from different members of this large superfamily has a high relevance in the field. By observing Table 1 and Table 2, interesting structure–activity relationship (SAR) considerations can be inferred.

PsCA3 [2] = biological target: T3, PsCA3 (Pseudomonas aeruginosa, UniProt Q9HVB9); assay: biochemical; conditions: read-out: Bacterial Isoforms / Ps CA3
T3 construct: gene PA4676; recombinant, obtained in-house
T3 sequence (Q9HVB9 1-215): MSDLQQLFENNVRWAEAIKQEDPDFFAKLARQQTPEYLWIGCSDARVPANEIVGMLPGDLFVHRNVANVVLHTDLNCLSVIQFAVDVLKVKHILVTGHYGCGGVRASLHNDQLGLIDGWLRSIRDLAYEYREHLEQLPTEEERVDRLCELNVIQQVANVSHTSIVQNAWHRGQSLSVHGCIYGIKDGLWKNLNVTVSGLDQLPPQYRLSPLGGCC
Procedure: as §1

hCA I [3] = biological target: T4, hCA I (Homo sapiens, UniProt P00915); assay: biochemical; conditions: read-out: Human Isoforms / hCA I
T4 construct: gene CA1; purchased from Merck
T4 sequence (P00915 2-261): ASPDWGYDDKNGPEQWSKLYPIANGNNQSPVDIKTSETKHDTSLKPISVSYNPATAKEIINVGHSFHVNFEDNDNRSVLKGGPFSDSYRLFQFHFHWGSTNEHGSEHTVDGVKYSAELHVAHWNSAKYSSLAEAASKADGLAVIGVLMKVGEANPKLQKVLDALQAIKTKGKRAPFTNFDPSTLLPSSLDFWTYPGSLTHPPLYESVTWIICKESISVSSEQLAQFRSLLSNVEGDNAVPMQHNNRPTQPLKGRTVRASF
Procedure: as §1

hCA II [4] = biological target: T5, hCA II (Homo sapiens, UniProt P00918); assay: biochemical; conditions: read-out: Human Isoforms / hCA II
T5 construct: gene CA2; purchased from Merck
Procedure: as §1

hCA IX [5] = biological target: T6, hCA IX (Homo sapiens, UniProt Q16790); assay: biochemical; conditions: read-out: Human Isoforms / hCA IX
T6 construct: gene CA9
Procedure: as §1

hCA XII [6] = biological target: T7, hCA XII (Homo sapiens, UniProt O43570); assay: biochemical; conditions: read-out: Human Isoforms / hCA XII
T7 construct: gene CA12
T7 sequence (O43570 30-289 limits assumed): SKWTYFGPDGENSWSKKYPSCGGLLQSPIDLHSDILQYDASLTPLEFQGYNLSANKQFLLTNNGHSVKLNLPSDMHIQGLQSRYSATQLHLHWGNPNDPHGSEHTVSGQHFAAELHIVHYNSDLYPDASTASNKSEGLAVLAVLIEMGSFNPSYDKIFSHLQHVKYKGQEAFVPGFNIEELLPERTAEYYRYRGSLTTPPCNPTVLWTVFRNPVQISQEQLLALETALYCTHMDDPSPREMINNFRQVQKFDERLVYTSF
Procedure: as §1

H. pylori ATCC 43504 = test system: T8, H. pylori ATCC 43504; assay: microbe, parasite or virus in culture; design: species or system Helicobacter pylori ATCC 43504; MIC by broth microdilution, alamarBlue and CFU count; MBC by CFU count; conditions: Helicobacter pylori, ATCC43504
T8 construct: ATCC 43504
Procedure: H. pylori ATCC 43504 was cultured on a Columbia Agar base (Becton Dickinson and Company, Franklin Lakes, NJ, USA) supplemented with 10% horse serum (Merck, St. Louis, MO, USA) and 0.25% yeast extract (Oxoid Ltd., Hampshire, UK), incubated at 37 °C for 72 h in a microaerophilic atmosphere (CampyGen, Thermo Fisher Scientific, Milan, Italy). Colonies were collected and transferred into 10 mL of Brain Heart Infusion broth (BHI, Oxoid Ltd., Hampshire, UK) supplemented with 5% (v/v) of fetal bovine serum (FBS, Merck, Milan, Italy) and incubated overnight at 37 °C, at 125 rpm under microaerophilic conditions. After 18 h of incubation, the broth culture was diluted to obtain a bacterial suspension of 10^6 CFU/mL. MICs were determined by three different assays: the broth micro-dilution method, the alamarBlue assay, and the CFU count. […] This bacterium was selected based on the inhibitory potency evidenced by the two series of azobenzenesulfonamides against the HpCAs.

hCA I [7] = biological target: T4, hCA I; assay: stopped-flow CO2 hydration; assay type: biochemical; conditions: read-out: KI (nM) * / Human Isoforms / hCA I
Source text: stopped-flow CO2 hydration on hCA I

hCA II [8] = biological target: T5, hCA II; assay: stopped-flow CO2 hydration; assay type: biochemical; conditions: read-out: KI (nM) * / Human Isoforms / hCA II
Source text: stopped-flow CO2 hydration on hCA II

hCA IX [9] = biological target: T6, hCA IX; assay: stopped-flow CO2 hydration; assay type: biochemical; conditions: read-out: KI (nM) * / Human Isoforms / hCA IX
Source text: stopped-flow CO2 hydration on hCA IX

PgiγCA = biological target: T9, PgiγCA; assay: stopped-flow CO2 hydration; assay type: biochemical, Porphyromonas gingivalis; conditions: pH […] HEPES, […] Na2SO4, […] min preincubation, r.t.; read-out: KI (nM) * / Bacterial Isoforms / Pgi γCA
T9 construct: gene PgiCA; recombinant, obtained in-house

EcoβCA [10] = biological target: T2, EcoβCA; assay: stopped-flow CO2 hydration; assay type: biochemical; conditions: read-out: KI (nM) * / Bacterial Isoforms / Eco βCA
hCA XII [11] = biological target: T7, hCA XII; assay: stopped-flow CO2 hydration; assay type: biochemical; conditions: read-out: KI (nM) * / Human Isoforms / hCA XII
Source text: stopped-flow CO2 hydration on hCA XII

HpβCA = biological target: T10, HpβCA (Helicobacter pylori, UniProt Q9ZN54); assay: stopped-flow CO2 hydration; assay type: biochemical; conditions: read-out: KI (nM) * / Bacterial Isoforms / Hp βCA
T10 construct: gene cynT; recombinant, obtained in-house
T10 sequence (Q9ZN54 1-221): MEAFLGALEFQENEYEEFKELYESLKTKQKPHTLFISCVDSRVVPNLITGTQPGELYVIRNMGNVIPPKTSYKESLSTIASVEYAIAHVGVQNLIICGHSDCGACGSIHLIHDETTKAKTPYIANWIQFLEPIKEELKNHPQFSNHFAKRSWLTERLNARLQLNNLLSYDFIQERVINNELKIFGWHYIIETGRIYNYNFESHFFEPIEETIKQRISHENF

PsCA3 [12] = biological target: T3, PsCA3; assay: stopped-flow CO2 hydration; assay type: biochemical; conditions: read-out: KI (nM) * / Bacterial Isoforms / Ps CA3
PgiβCA = biological target: T11, PgiβCA; assay: stopped-flow CO2 hydration; assay type: biochemical, Porphyromonas gingivalis; conditions: pH […] HEPES, […] Na2SO4, […] min preincubation, r.t.; read-out: KI (nM) * / Bacterial Isoforms / Pgi βCA
T11 construct: gene PgiCAb; recombinant, obtained in-house

[13] = read-out: KI (nM) / Bacterial Isoforms / Hp αCA

Structure (SMILES) | Ki (HpαCA; [13]) [nM] | Ki (EcoβCA [1]) [µM] | Ki (PsCA3 [2]) [µM] | Ki (hCA I [3]) [µM] | Ki (hCA II [4]) [µM] | Ki (hCA IX [5]) [µM] | Ki (hCA XII [6]) [µM] | MBC (H. pylori ATCC 43504) [µg/mL] | MIC (H. pylori ATCC 43504) [µg/mL] | Ki (hCA I [7]) [nM] | Ki (hCA II [8]) [nM] | Ki (hCA IX [9]) [nM] | Ki (PgiγCA) [nM] | Ki (HpαCA; read-out: KI (nM) * / Bacterial Isoforms / Hp αCA) [nM] | Ki (EcoβCA [10]) [nM] | Ki (hCA XII [11]) [nM] | Ki (HpβCA) [nM] | Ki (PsCA3 [12]) [nM] | Ki (PgiβCA) [nM]
O=S(=O)(Nc1ccc(N=Nc2ccccc2)cc1)c1ccc(Cl)s1 [5g] | 55.8 | 59.2 | > 100 | 0.905 | > 100 | 4.04 | 4.12 | 16 (≈ 42.3 µM) | 16 (≈ 42.3 µM) | – | – | – | – | – | – | – | – | – | –
Cc1ccc(S(=O)(=O)Nc2ccc(N=Nc3ccccc3)cc2)cc1[N+](=O)[O-] [5e] | 604 | 59 | > 100 | 0.853 | > 100 | 0.792 | 0.847 | 16 (≈ 40.4 µM) | 8 (≈ 20.2 µM) | – | – | – | – | – | – | – | – | – | –
N#Cc1ccc(S(=O)(=O)Nc2ccc(N=Nc3ccccc3)cc2)cc1 [5b] | 75.6 | 73.4 | 5.76 | 0.359 | > 100 | 0.614 | 0.76 | 64 (≈ 177 µM) | 32 (≈ 88.3 µM) | – | – | – | – | – | – | – | – | – | –
COc1ccc(S(=O)(=O)Nc2ccc(N=Nc3ccccc3)cc2)c(OC)c1 [5f] | 71.3 | 77.7 | > 100 | 0.905 | > 100 | 5.74 | 0.894 | 4 (≈ 10.1 µM) | 4 (≈ 10.1 µM) | – | – | – | – | – | – | – | – | – | –
O=[N+]([O-])c1cccc(S(=O)(=O)Nc2ccc(N=Nc3ccccc3)cc2)c1 [5d] | 70.9 | 9.08 | 90.2 | 6.75 | > 100 | 0.601 | 0.215 | 64 (≈ 167 µM) | 16 (≈ 41.8 µM) | – | – | – | – | – | – | – | – | – | –
N#Cc1ccc(S(=O)(=O)Nc2ccc(N=Nc3ccccc3)cc2)c(Cl)c1 [5c] | 77.6 | 9.21 | > 100 | 0.908 | 24.7 | 9.2 | 1.75 | 8 (≈ 20.2 µM) | 4 (≈ 10.1 µM) | – | – | – | – | – | – | – | – | – | –
CCS(=O)(=O)Nc1ccc(N=Nc2ccccc2)cc1 [5j] | 68.4 | > 100 | 69.8 | 0.931 | > 100 | 7.07 | 3.34 | 16 (≈ 55.3 µM) | 16 (≈ 55.3 µM) | – | – | – | – | – | – | – | – | – | –
O=S(=O)(Nc1ccc(N=Nc2ccccc2)cc1)c1ccccc1 [5a] | 460 | 6.95 | 9.28 | 0.209 | > 100 | 3.98 | 0.955 | 32 (≈ 94.8 µM) | 16 (≈ 47.4 µM) | – | – | – | – | – | – | – | – | – | –
O=S(=O)(Cc1ccccc1)Nc1ccc(N=Nc2ccccc2)cc1 [5h] | 79 | 88.5 | > 100 | 5.53 | > 100 | 4.49 | 2.25 | 128 (≈ 364 µM) | 64 (≈ 182 µM) | – | – | – | – | – | – | – | – | – | –
COc1ccc(O)c(/N=N/c2ccc(S(N)(=O)=O)cc2)c1 [4a, (E)-4-((2-hydroxy-5-methoxyphenyl)diazenyl)benzenesulfonamide] | – | – | – | – | – | – | – | 32 (≈ 104 µM) | 8 (≈ 26 µM) | 45 | 24.1 | 201 | 3440 | 65.8 | 400 | 9.5 | 74.1 | 228 | 803
